Laboratory results reported in patent publication US20230285397A1, “EGFR INHIBITOR” (TAIHO PHARMACEUTICAL CO., LTD., priority 2020, published 2023).
pIC50: −log10 of the molar value.

Key:
[1] = Evaluation of brain penetration properties; format: in vivo; conditions: BALB/cA mice, oral, 50 mg/kg/day, 0.5 hours
Procedure: The compound of the present invention was suspended or dissolved in 0.5% HPMC aqueous solution and 0.1 N hydrochloric acid, and the obtained suspension or solution was orally administered to BALB/cA mice (CLEA Japan, Inc.) at a dose of 50 mg/kg/day. At 0.5 hours after completion of the oral administration, blood was collected from the facial vein, and whole brain was then excised, so as to obtain plasma and brain samples. Water was added to the obtained brain sample in 3 times the volume of the brain sample, and the resultant was then homogenized using an ultrasonic homogenizer, so as to obtain a brain homogenate. The concentration of the compound in the obtained plasma and brain homogenate was measured by LC-MS/MS, and the brain penetration properties of the present compound were evaluated from the brain/plasma concentration of the compound.

[2] = Evaluation of oral absorbability; format: in vivo; conditions: BALB/cA mice, 50 mg/kg/day
Procedure: The compound of the present invention was suspended or dissolved in 0.5% HPMC aqueous solution and 0.1 N hydrochloric acid, and the obtained suspension or solution was orally administered to BALB/cA mice (CLEA Japan, Inc.) at a dose of 50 mg/kg/day. At 0.5, 1, 2, 4 and 6 hours after completion of the oral administration, blood was collected from the facial vein over time, so as to obtain plasma. The concentration of the compound in the obtained plasma was measured by LC-MS/MS, and the oral absorbability of the present compound was evaluated.

[3] = system: H1975-EGFRinsSVD cell line; assay: Antitumor effect confirmation test (in vivo) on subcutaneous transplantation models; parameters: species or system nude mouse (BALB/cAJcl-nu/nu); conditions: Examples 2, 11 and 12 orally at 25, 25 and 50 mg/kg/day, Days 1-14; Dunnett test P<0.001
Procedure: When the tumor volumes of nude mice having tumor engraftment became on the order of 100 to 200 mm^3, the mice were assigned to groups each involving 6 animals by random stratification such that the average tumor volume was equal among the groups.
The test compound used was the compounds of Examples 2, 11, and 12, and a 0.5% HPMC aqueous solution was used as a control. The compounds of Examples 2, 11 and 12 were orally administered at doses of 25 mg/kg/day, 25 mg/kg/day and 50 mg/kg/day, respectively.
Each test compound or the control was orally administered every day for 14 days (Days 1-14) from the day following the grouping.
To compare the transition of tumor growth over time by the administration of each test compound, a tumor volume (which is also referred to as “TV” below) was measured at a frequency of twice a week over time. […] A body weight change percentage is also referred to as “BWC” below.
BWCn(%)=((body weight on n^th day)−(body weight on grouping day)]/[(body weight on grouping day)×100

[4] = biological target: T1, EGFR [D770_N771insNPG] (Homo sapiens, UniProt P00533, INS772GNP); assay: Phosphorylation activity inhibitory effect (in vitro), kinase assay at Carna Biosciences; format: biochemical; conditions: ATP near Km
T1 construct: fused on or other part: Probably an N-terminal GST tag (Carna product)
T1 sequence (P00533 with tags, fused parts or gaps INS772GNP): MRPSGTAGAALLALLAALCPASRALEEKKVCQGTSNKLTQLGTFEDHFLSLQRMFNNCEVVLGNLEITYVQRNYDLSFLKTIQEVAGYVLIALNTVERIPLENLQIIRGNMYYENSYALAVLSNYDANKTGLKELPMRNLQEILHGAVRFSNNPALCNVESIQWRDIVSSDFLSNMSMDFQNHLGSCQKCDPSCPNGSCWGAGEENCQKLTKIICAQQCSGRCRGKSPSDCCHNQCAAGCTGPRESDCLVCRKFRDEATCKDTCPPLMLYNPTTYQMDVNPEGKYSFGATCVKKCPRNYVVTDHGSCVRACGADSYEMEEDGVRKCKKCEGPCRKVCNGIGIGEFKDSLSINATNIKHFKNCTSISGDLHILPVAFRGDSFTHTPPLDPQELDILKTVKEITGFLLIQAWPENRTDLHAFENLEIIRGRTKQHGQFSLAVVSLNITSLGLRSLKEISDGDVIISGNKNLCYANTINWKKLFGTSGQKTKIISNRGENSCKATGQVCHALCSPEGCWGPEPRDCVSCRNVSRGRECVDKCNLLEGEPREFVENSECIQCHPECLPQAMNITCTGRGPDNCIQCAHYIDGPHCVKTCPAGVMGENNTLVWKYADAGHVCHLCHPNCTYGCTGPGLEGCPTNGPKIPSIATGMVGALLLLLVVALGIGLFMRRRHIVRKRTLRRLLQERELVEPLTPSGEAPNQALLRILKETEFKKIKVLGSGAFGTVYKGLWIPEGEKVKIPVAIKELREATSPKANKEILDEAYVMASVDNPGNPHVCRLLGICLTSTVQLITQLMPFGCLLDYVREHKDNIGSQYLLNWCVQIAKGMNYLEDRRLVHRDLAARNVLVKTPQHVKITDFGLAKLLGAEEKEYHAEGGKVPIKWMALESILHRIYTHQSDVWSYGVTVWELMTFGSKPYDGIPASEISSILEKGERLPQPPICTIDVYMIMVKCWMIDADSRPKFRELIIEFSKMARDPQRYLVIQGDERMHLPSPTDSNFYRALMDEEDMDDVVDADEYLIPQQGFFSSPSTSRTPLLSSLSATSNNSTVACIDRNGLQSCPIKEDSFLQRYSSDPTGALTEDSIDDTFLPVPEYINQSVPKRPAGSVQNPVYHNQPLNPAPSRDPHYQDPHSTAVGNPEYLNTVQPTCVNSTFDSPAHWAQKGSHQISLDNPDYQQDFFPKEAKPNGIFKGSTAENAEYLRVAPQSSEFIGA
Procedure: The measurement of the in vitro inhibitory activity of a compound against wild-type and mutant EGFR was outsourced to Carna Biosciences, Inc. (Kinase Profiling Book, https://www.carnabio.com/japanese/product/search.cgi?mode=profiling).
Specifically, first, the compound of the present invention was diluted stepwise with dimethyl sulfoxide (DMSO). […] To the reaction solution, Termination Buffer was added, so as to terminate the kinase reaction. Finally, using LabChip™ EZ Reader II (PerkinElmer), an unphosphorylated substrate peptide (S) and a phosphorylated peptide (P) were separated and detected according to microchannel capillary electrophoresis.

| Structure (SMILES) | Attenuation of brain concentration relative to the compound of the present invention [1] | Attenuation of oral absorbability relative to the compound of the present invention [2] | Antitumor effect: tumor volume (TV) on Day 15 compared with the control group [3] | pIC50 [4] |
| --- | --- | --- | --- | --- |
| C=CC(=O)N1C[C@H](n2nc(C(=O)Nc3ccc(CC(=O)N(C)C)c(C)c3C)c3c(N)ncnc32)C[C@@H]1C [Comparative Example 2, 1-((3R,5S)-1-acryloyl-5-methylpyrrolidin-3-yl)-4-amino-N-(4-(2-(dimethylamino)-2-oxoethyl)-2,3-dimethylphenyl)-1H-pyrazolo[3,4-d]pyrimidine-3-carboxamide] | more than 80 times | more than 4 times | – | – |
| C=CC(=O)N1C[C@H](n2c(C#CC)c(C(=O)N[C@H](C)c3ccccc3)c3c(N)ncnc32)C[C@@H]1C [Example 2, 7-((3R,5S)-1-acryloyl-5-methylpyrrolidin-3-yl)-4-amino-N—((R)-1-phenylethyl)-6-(prop-1-yn-1-yl)-7H-pyrrolo[2,3-d]pyrimidine-5-carboxamide] | – | – | excellent antitumor effects | – |
| C=CC(=O)N1C[C@H](n2c(C#CC3CC3)c(C(=O)N[C@H](C)c3ccccc3)c3c(N)ncnc32)C[C@@H]1C [Example 11, 7-((3R,5S)-1-acryloyl-5-methylpyrrolidin-3-yl)-4-amino-6-(cyclopropylethynyl)-N—((R)-1-phenylethyl)-7H-pyrrolo[2,3-d]pyrimidine-5-carboxamide] | – | – | excellent antitumor effects | 9.26 |
| C=CC(=O)N1C[C@H](n2c(C#CC(C)(C)C)c(C(=O)N[C@H](C)c3ccccc3)c3c(N)ncnc32)C[C@@H]1C [Example 12, 7-((3R,5S)-1-acryloyl-5-methylpyrrolidin-3-yl)-4-amino-6-(3,3-dimethylbut-1-yn-1-yl)-N—((R)-1-phenylethyl)-7H-pyrrolo[2,3-d]pyrimidine-5-carboxamide] | – | – | excellent antitumor effects | – |
